Experimental data as given in patent US10723699B2 (Hyundai Pharm Co., Ltd., priority 2015, dated 2020).
Entries after “also recorded” stand apart in the source; their conditions may differ.

What was measured:
[1] = tested on: diet-induced obesity (DIO) rat model; assay: Changes in weights in diet-induced obesity (DIO) rat model, 4-week administration; type: in vivo, Sprague Dawley (SD) rats; conditions: 4 weeks
Method: To simultaneously evaluate both the weight-loss and hypoglycemic effects of the cyclohexene derivative according to the present invention, experiments were carried out, as follows.
(§1) Specifically, male Sprague Dawley (SD) rats (approximately 4 weeks old) in a diet-induced obesity model were fed with a high-fat diet (Lab. Diet Co.) for approximately 10 weeks to induce high-fat diet-induced obesity (DIO). The rats undergoing the high-fat diet were randomly selected, and divided into groups (n=8) for respective administrations. The compounds of Comparative Examples 3 and 4 and Examples 48 and 119 were administered to the divided DIO rats each group for 4 weeks.
(§2) The weights of the DIO rats were measured twice a week during a period of administration of 4 weeks to record a change in the weights. At the end of the 4-week period of administration, a hypoglycemic effect was evaluated using an oral glucose tolerance test (OGTT), as follows.

[2] = tested on: diet-induced obesity (DIO) rat model; assay: OGTT at the end of the 4-week administration in DIO rat model; type: in vivo, Sprague Dawley (SD) rats; conditions: glucose 2 g/kg 30 minutes later, after 4-week administration
Method: as §1, §2
Specifically, each of the compounds of Comparative Example 3 (300 mg/kg) and Examples 48 and 119 (10, 20, 50 mg/kg) was administered, and 2 g/kg of glucose was orally administered after 30 minutes of the administration. A blood glucose level was determined using an Accu-Chek Active Strip (Roche diagnostic Co.). In this case, the glucose level in blood collected via caudal venipuncture was measured at time points of −30, 0, 20, 40, 60, and 120 minutes after glucose administration. […]

NCI-H716 cells = assay: Promotion of glucagon-like peptide-1 (GLP-1) secretion (ELISA); type: cell-based, human; conditions: 1, 10 and 30 μM-treated groups
Method: To evaluate an effect of the cyclohexene derivative according to the present invention on promotion of glucagon-like peptide-1 (GLP-1) secretion, experiments were carried out, as follows.
NCI-H716 cells that were human enterocytes were plated on 12 wells at 1×10^6 cells per well. After 48 hours, the cells were starved in serum-free media for 2 hours, and treated with a varying concentration of siptagliptin that was a dipeptidyl peptidase-IV (DPP-IV) inhibitor, and the compounds of Comparative Example 1 (1, 10, 30 μM), Comparative Example 5 (10 μM), Example 48 (1, 10, 30 μM), and Example 291 (1, 10, 30 μM). After an hour, supernatants are recovered to determine an amount of the secreted GLP-1 peptide. The GLP-1 measurement was performed using an enzyme-linked immunosorbant assay (ELISA; Millipore, EGLP-35K), and the amount of the secreted GLP-1 peptide was indicated by the unit “pM”.

| Structure (SMILES) | changes in weights of rats (weight-loss effect) ([1]; 10, 20, and 50 mg/kg oral) | hypoglycemic effect ([2]; 50 mg/kg oral) | GLP-1 secretion compared with Comparative Example 1 (NCI-H716 cells) | changes in weights of rats (weight-loss effect) ([1]; 300 mg/kg oral) | hypoglycemic effect ([2]; 300 mg/kg oral) |
| --- | --- | --- | --- | --- | --- |
| CC(C)c1noc(N2CCC(COc3ccc(C4=CCC(C(=O)N5CC[C@@H](O)C5)CC4)cc3)CC2)n1 (stereo partly drawn) [Example 48, ((R)-3-hydroxypyrrolidin-1-yl)(4-(4-((1-(3-isopropyl-1,2,4-oxadiazol-5-yl)piperidin-4-yl)methoxy)phenyl)cyclohex-3-enyl)methanone] | higher weight-loss effect; also recorded: persistent weight loss was observed for 4 weeks | approximately 25% | higher level than that of Comparative Example 1 | – | – |
| CN(C)C(=N)NC(=N)N [Comparative Example 3, Metformin] | – | – | – | weight loss was observed for 2 weeks; also recorded: the weight rather increased after 2 weeks | approximately 22% |
